Results reported in PubChem BioAssay (NCI).
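In this assay, cells in 96-well plates receive the compound at five concentrations for 48 hours. Endpoints are linearly interpolated between the surrounding concentrations. At the TGI there is no net growth.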

Assays:
Assay in all cases: growth of human tumour cells (NCI), 48 h
[1] = tested on: EKVX NSCLC
[2] = tested on: RXF 393 renal
[3] = tested on: HCT-116 colon
[4] = tested on: U251 CNS
[5] = tested on: PC-3 prostate
[6] = tested on: MDA-N
[7] = tested on: LOX IMVI melanoma
[8] = tested on: MDA-MB-435
[9] = tested on: HOP-62 NSCLC
[10] = tested on: RPMI-8226 leukemia
[11] = tested on: OVCAR-5 ovarian
[12] = tested on: CAKI-1 renal
[13] = tested on: UACC-62 melanoma
[14] = tested on: COLO 205 colon
[15] = tested on: ACHN renal
[16] = tested on: MCF7 breast
[17] = tested on: SF-539 CNS
[18] = tested on: OVCAR-3 ovarian
[19] = tested on: HS 578T breast
[20] = tested on: MALME-3M melanoma
[21] = tested on: TK-10 renal
[22] = tested on: SF-295 CNS
[23] = tested on: DU-145 prostate
[24] = tested on: NCI-H23 lung
[25] = tested on: K-562 leukemia
[26] = tested on: UO-31 renal
[27] = tested on: OVCAR-8 ovarian
[28] = tested on: A549 NSCLC
[29] = tested on: UACC-257 melanoma
[30] = tested on: M14 melanoma
[31] = tested on: SW-620 colon
[32] = tested on: SK-MEL-2 melanoma
[33] = tested on: A498 renal
[34] = tested on: HT29 colon
[35] = tested on: SN12C renal
[36] = tested on: SK-MEL-5 melanoma
[37] = tested on: NCI-H522 lung
[38] = tested on: HL-60(TB) leukemia
[39] = tested on: SF-268 CNS
[40] = tested on: IGROV1 ovarian
[41] = tested on: HOP-92 NSCLC
[42] = tested on: 786-0 renal
[43] = tested on: SK-MEL-28 melanoma
[44] = tested on: NCI/ADR-RES ovarian
[45] = tested on: NCI-H226 lung
[46] = tested on: SK-OV-3 ovarian
[47] = tested on: SR leukemia
[48] = tested on: HCT-15 colon
[49] = tested on: MDA-MB-231 breast
[50] = tested on: BT-549 breast
[51] = tested on: SNB-19 CNS
[52] = tested on: NCI-H460 lung
[53] = tested on: HCC-2998 colon
[54] = tested on: CCRF-CEM leukemia
[55] = tested on: MOLT-4 leukemia

## CC(C)(C)C1CCC2c3c([nH]c4ccccc34)C3C(=O)N(c4ccc(C(=O)O)cc4)C(=O)C3C2C1 (stereo unspecified)
[1]
  TGI: 39.7 µM
[2]
  TGI: 29.5 µM
[3]
  TGI: 29.7 µM
[4]
  TGI: 26.2 µM
[5]
  TGI: 26.3 µM
[6]
  TGI: 24.7 µM
[7]
  TGI: 28.8 µM
[8]
  TGI: 11.1 µM
[9]
  TGI: 15.8 µM
[10]
  TGI: > 100 µM
[11]
  TGI: 36.5 µM
[12]
  TGI: 31 µM
[13]
  TGI: 30.4 µM
[14]
  TGI: 40.4 µM
[15]
  TGI: 24.5 µM
[16]
  TGI: 26.4 µM
[17]
  TGI: 34.8 µM
[18]
  TGI: 25.8 µM
[19]
  TGI: 39 µM
[20]
  TGI: 28.9 µM
[21]
  TGI: 31.3 µM
[22]
  TGI: 23.4 µM
[23]
  TGI: 34.7 µM
[24]
  TGI: 40.8 µM
[25]
  TGI: 17.9 µM
[26]
  TGI: 30.4 µM
[27]
  TGI: 26.6 µM
[28]
  TGI: 25.8 µM
[29]
  TGI: 28.3 µM
[30]
  TGI: 37.3 µM
[31]
  TGI: 26.5 µM
[32]
  TGI: 29.1 µM
[33]
  TGI: 34.6 µM
[34]
  TGI: 28.7 µM
[35]
  TGI: 25.6 µM
[36]
  TGI: 25.7 µM
[37]
  TGI: 41.6 µM
[38]
  TGI: 15.4 µM
[39]
  TGI: 28.4 µM
[40]
  TGI: 40.1 µM
[41]
  TGI: 25.7 µM
[42]
  TGI: 29.1 µM
[43]
  TGI: 30.3 µM
[44]
  TGI: 36 µM
[45]
  TGI: 40.3 µM
[46]
  TGI: 32.1 µM
[47]
  TGI: > 100 µM
[48]
  TGI: 25 µM
[49]
  TGI: 29.2 µM
[50]
  TGI: 30.1 µM
[51]
  TGI: 34.6 µM
[52]
  TGI: 35.4 µM
[53]
  TGI: 29 µM
[54]
  TGI: 12.5 µM

## Cc1cccc(N2C(=O)C3c4[nH]c5ccccc5c4C4CCC(C(C)(C)C)CC4C3C2=O)c1C (stereo unspecified)
[1]
  TGI: > 100 µM
[2]
  TGI: > 100 µM
[3]
  TGI: > 100 µM
[4]
  TGI: 83.4 µM
[5]
  TGI: > 100 µM
[6]
  TGI: > 100 µM
[7]
  TGI: > 100 µM
[8]
  TGI: > 100 µM
[9]
  TGI: > 100 µM
[10]
  TGI: > 100 µM
[11]
  TGI: > 100 µM
[12]
  TGI: > 100 µM
[13]
  TGI: > 100 µM
[14]
  TGI: > 100 µM
[15]
  TGI: > 100 µM
[16]
  TGI: > 100 µM
[17]
  TGI: > 100 µM
[18]
  TGI: > 100 µM
[19]
  TGI: > 100 µM
[20]
  TGI: > 100 µM
[21]
  TGI: > 100 µM
[22]
  TGI: > 100 µM
[23]
  TGI: > 100 µM
[24]
  TGI: > 100 µM
[25]
  TGI: > 100 µM
[55]
  TGI: > 100 µM
[26]
  TGI: > 100 µM
[27]
  TGI: > 100 µM
[28]
  TGI: > 100 µM
[29]
  TGI: > 100 µM
[30]
  TGI: > 100 µM
[31]
  TGI: > 100 µM
[32]
  TGI: > 100 µM
[33]
  TGI: > 100 µM
[34]
  TGI: > 100 µM
[35]
  TGI: > 100 µM
[36]
  TGI: > 100 µM
[38]
  TGI: 60.4 µM
[40]
  TGI: > 100 µM
[41]
  TGI: > 100 µM
[42]
  TGI: > 100 µM
[44]
  TGI: > 100 µM
[45]
  TGI: > 100 µM
[46]
  TGI: > 100 µM
[47]
  TGI: > 100 µM
[48]
  TGI: > 100 µM
[49]
  TGI: 42.3 µM
[50]
  TGI: > 100 µM
[51]
  TGI: > 100 µM
[52]
  TGI: > 100 µM
[53]
  TGI: > 100 µM
[54]
  TGI: > 100 µM
